Laboratory results taken from patent publication US9227971B2, “Pyrazolo[1,5-a]pyrimidine compounds as mTOR inhibitors” (Merck Sharp & Dohme Corp., priority 2010, dated 2016).
Read-outs that look alike come from different tables or passages of the source.

What was measured:
[1] = test system: phosphorylated AKT Ser473 (pAKT S473), mTORC2 activity, PC3 cells; test: mTOR target engagement assay, immunofluorescent cell-based, pAKT S473 readout (mTORC2 activity)
Procedure, shortened: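 After blocking, cells were stained overnight at 4 °C with anti-pAKT S473 antibody, then a fluorescent secondary; inhibition was read as reduced fluorescence intensity.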

[2] = test system: phosphorylated 4E-BP1 Thr37/46 (p4E-BP1 Thr37/46), mTORC1 activity, PC3 cells; test: mTOR target engagement assay, immunofluorescent cell-based, p4E-BP1 Thr37/46 readout (mTORC1 activity); conditions: read-out: p4E-BP1 Thr37/46 IC50
Procedure, shortened: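 PTEN-mutant PC3 prostate cells were treated with serially diluted compound in 5% FBS F12 medium (0.25% DMSO) for ninety minutes at 37° C, glyoxal-fixed, then immunostained overnight at 4° C for p4E-BP1 Thr37/46 with an Alexa Fluor 488 secondary. IC50 came from four-parameter fits of fluorescence, DMSO-only wells defining 100%.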

[3] = Homo sapiens, PC-3, Table 6-1, PC3 cells
[4] = Homo sapiens, PC-3, Table 3-1, PC3 cells
[5] = Homo sapiens, PC-3, PC3 cells, compound treatment ninety minutes at 37° C.

| Structure (SMILES) | IC50 [1, 4] [nM] | IC50 [2, 4] [nM] | IC50 [1, 5] [nM] | IC50 [2, 5] [nM] | other results |
| --- | --- | --- | --- | --- | --- |
| Nc1c(C2CC2)c([C@]2(O)C[C@H]3CC[C@@H](C2)N3C(=O)c2nnc[nH]2)nc2c(-c3ccc(-c4ccccc4)nc3)cnn12 [Compound 8.24, ((1R,3r,5S)-3-(7-amino-6-cyclopropyl-3-(6-phenylpyridin-3-yl)pyrazolo[1,5-a]pyrimidin-5-yl)-3-hydroxy-8-azabicyclo[3.2.1]octan-8-yl)(4H-1,2,4-triazol-3-yl)methanone] | – | – | – | – | IC50 ([1]; Homo sapiens, PC-3, PC3 cells): 100 to 1000 nM; IC50 ([2]; Homo sapiens, PC-3, PC3 cells): 1000 to 10000 nM |
| CC(=O)c1c([C@@H]2C[C@H]3CC[C@@H](C2)N3C(=O)c2nnc[nH]2)nc2c(-c3ccc(-c4ncc[nH]4)cc3)cnn2c1N [Compound 6.43, 1-(3-(4-(1H-imidazol-2-yl)phenyl)-5-((1R,3s,5S)-8-(4H-1,2,4-triazole-3-carbonyl)-8-azabicyclo[3.2.1]octan-3-yl)-7-aminopyrazolo[1,5-a]pyrimidin-6-yl)ethanone] | – | – | – | – | IC50 [1, 3]: 1 to 100 nM; IC50 [2, 3]: 1 to 100 nM |
| CC(=O)NCC(=O)N1[C@@H]2CC[C@H]1C[C@H](c1nc3c(-c4ccc(-c5ccccc5)nc4)cnn3c(N)c1S(C)(=O)=O)C2 [Compound 3.203, N-(2-((1R,3s,5S)-3-(7-amino-6-(methylsulfonyl)-3-(6-phenylpyridin-3-yl)pyrazolo[1,5-a]pyrimidin-5-yl)-8-azabicyclo[3.2.1]octan-8-yl)-2-oxoethyl)acetamide] | 1 to 100 | 1 to 100 | – | – | – |
| Cn1cc(-c2ccc(-c3cnn4c(N)c(S(C)(=O)=O)c([C@@H]5C[C@H]6CC[C@@H](C5)N6C(=O)c5nnc[nH]5)nc34)cn2)cn1 [Compound 3.106, ((1R,3s,5S)-3-(7-amino-3-(6-(1-methyl-1H-pyrazol-4-yl)pyridin-3-yl)-6-(methylsulfonyl)pyrazolo[1,5-a]pyrimidin-5-yl)-8-azabicyclo[3.2.1]octan-8-yl)(4H-1,2,4-triazol-3-yl)methanone] | 1 to 100 | 1 to 100 | – | – | – |
| CC(=O)c1c([C@@H]2C[C@H]3CC[C@@H](C2)N3C(N)=O)nc2c(-c3ccc(-c4ccc(F)cc4)nc3)cnn2c1N [Compound 1.11..170, (1R,3s,5S)-3-(6-acetyl-7-amino-3-(6-(4-fluorophenyl)pyridin-3-yl)pyrazolo[1,5-a]pyrimidin-5-yl)-8-azabicyclo[3.2.1]octane-8-carboxamide] | – | – | 1 to 100 | 1 to 100 | – |
| Cn1nnc(-c2ccc(-c3cnn4c(N)c(S(C)(=O)=O)c([C@@H]5C[C@H]6CC[C@@H](C5)N6C(=O)CO)nc34)cn2)n1 [Compound 3.43, 1-((1R,3a,5S)-3-(7-amino-3-(6-(2-methyl-2H-tetrazol-5-yl)pyridin-3-yl)-6-(methylsulfonyl)pyrazolo[1,5-a]pyrimidin-5-yl)-8-azabicyclo[3.2.1]octan-8-yl)-2-hydroxyethanone] | 1000 to 10000 | > 10000 | – | – | – |
| CS(=O)(=O)c1c([C@@H]2C[C@H]3CC[C@@H](C2)N3C(=O)c2nnc[nH]2)nc2c(-c3ccc(-c4ccccc4F)nc3)cnn2c1N [Compound 3.104, ((1R,3s,5S)-3-(7-amino-3-(6-(2-fluorophenyl)pyridin-3-yl)-6-(methylsulfonyl)pyrazolo[1,5-a]pyrimidin-5-yl)-8-azabicyclo[3.2.1]octan-8-yl)(4H-1,2,4-triazol-3-yl)methanone] | 1 to 100 | 1 to 100 | – | – | – |
| Cc1nnc(C(=O)N2[C@@H]3CC[C@H]2C[C@H](c2nc4c(-c5ccc(-c6ccc(F)cc6)nc5)cnn4c(N)c2S(C)(=O)=O)C3)[nH]1 [Compound 3.119, ((1R,3s,5S)-3-(7-amino-3-(6-(4-fuorophenyl)pyridin-3-yl)-6-(methylsulfonyl)pyrazolo[1,5-a]pyrimidin-5-yl)-8-azabicyclo[3.2.1]octan-8-yl)(5-methyl-4H-1,2,4-triazol-3-yl)methanone] | – | – | – | – | IC50 ([1]; Table 3-1, PC3 cells): 1 to 100 nM; IC50 ([2]; Table 3-1, PC3 cells): 1 to 100 nM |
| CS(=O)(=O)c1c([C@@H]2C[C@H]3CC[C@@H](C2)N3C(=O)C(F)(F)F)nc2c(-c3ccc(-c4ccccc4)nc3)cnn2c1N [Compound 3.91, 1-((1R,3s,5S)-3-(7-amino-6-(methylsulfonyl)-3-(6-phenylpyridin-3-yl)pyrazolo[1,5-a]pyrimidin-5-yl)-8-azabicyclo[3.2.1]octan-8-yl)-2,2,2-trifluoroethanone] | 1000 to 10000 | 1000 to 10000 | – | – | – |
| CC(=O)c1c([C@@H]2C[C@H]3CC[C@@H](C2)N3C(=O)CO)nc2c(-c3ccc(-c4ncc(C)[nH]4)nc3)cnn2c1N [Compound 6.26, 1-((1R,3s,5S)-3-(6-acetyl-7-amino-3-(6-(5-methyl-1H-imidazol-2-yl)pyridin-3-yl)pyrazolo[1,5-a]pyrimidin-5-yl)-8-azabicyclo[3.2.1]octan-8-yl)-2-hydroxyethanone] | – | – | – | – | IC50 [1, 3]: 1 to 100 nM; IC50 [2, 3]: 1 to 100 nM |
| CC(=O)c1c([C@@H]2C[C@H]3CC[C@@H](C2)N3C(=O)CO)nc2c(-c3ccc(-n4cc(C)cn4)nc3)cnn2c1N [Compound 1.1.134, 1-((1R,3s,5S)-3-(6-acetyl-7-amino-3-(6-(4-methyl-1H-pyrazol-1-yl)pyridin-3-yl)pyrazolo[1,5-a]pyrimidin-5-yl)-8-azabicyclo[3.2.1]octan-8-yl)-2-hydroxyethanone] | – | – | 1 to 100 | 100 to 1000 | – |
| CC(=O)c1c([C@@H]2C[C@H]3CC[C@@H](C2)N3C(=O)c2nnc(N)[nH]2)nc2c(-c3ccc(C(N)(C(F)(F)F)C(F)(F)F)nc3)cnn2c1N [Compound 7.83] | – | – | – | – | IC50 ([1]; Homo sapiens, PC-3, PC3 cells): 1000 to 10000 nM; IC50 ([2]; Homo sapiens, PC-3, PC3 cells): 100 to 1000 nM |
| Cc1cnc(-c2ccc(-c3cnn4c(N)c(S(C)(=O)=O)c([C@@H]5C[C@H]6CC[C@@H](C5)N6C(=O)C(O)C(F)(F)F)nc34)cn2)s1 (stereo partly drawn) [Compound 3.187, 1-((1R,3s,5S)-3-(7-amino-6-(methylsulfonyl)-3-(6-(5-methylthiazol-2-yl)pyridin-3-yl)pyrazolo[1,5-a]pyrimidin-5-yl)-8-azabicyclo[3.2.1]octan-8-yl)-3,3,3-trifluoro-2-hydroxypropan-1-one] | 1000 to 10000 | 1000 to 10000 | – | – | – |
| COc1ccc(-c2ccc(-c3cnn4c(N)c(C(C)=O)c([C@@H]5C[C@H]6CC[C@@H](C5)N6C(=O)c5nnc[nH]5)nc34)cn2)cc1C#N [Compound 1.1.124, 5-(5-(5-((1R,3s,5S)-8-(4H-1,2,4-triazole-3-carbonyl)-8-azabicyclo[3.2.1]octan-3-yl)-6-acetyl-7-aminopyrazolo[1,5-a]pyrimidin-3-yl)pyridin-2-yl)-2-methoxybenzonitrile] | – | – | 100 to 1000 | 100 to 1000 | – |
| CS(=O)(=O)c1c([C@@H]2C[C@H]3CC[C@@H](C2)N3C(=O)c2nnc[nH]2)nc2c(-c3ccc(CO)c(F)c3)cnn2c1N [Compound 8.42, ((1R,3s,5S)-3-(7-amino-3-(3-fluoro-4-(hydroxymethyl)phenyl)-6-(methylsulfonyl)pyrazolo[1,5-a]pyrimidin-5-yl)-8-azabicyclo[3.2.1]octan-8-yl)(4H-1,2,4-triazol-3-yl)methanone] | – | – | – | – | IC50 ([1]; Homo sapiens, PC-3, PC3 cells): 1 to 100 nM; IC50 ([2]; Homo sapiens, PC-3, PC3 cells): 1 to 100 nM |
| Cc1nnc(C(=O)N2[C@@H]3CC[C@H]2C[C@H](c2nc4c(-c5ccc(C6(O)CCC6)nc5)cnn4c(N)c2C2CC2)C3)[nH]1 [Compound 7.71, ((1R,3s,5S)-3-(7-amino-6-cyclopropyl-3-(6-(1-hydroxycyclobutyl)pyridin-3-yl)pyrazolo[1,5-a]pyrimidin-5-yl)-8-azabicyclo[3.2.1]octan-8-yl)(5-methyl-4H-1,2,4-triazol-3-yl)methanone] | – | – | – | – | IC50 ([1]; Homo sapiens, PC-3, PC3 cells): 100 to 1000 nM; IC50 ([2]; Homo sapiens, PC-3, PC3 cells): 100 to 1000 nM |
| CS(=O)(=O)c1c([C@H]2CC3CC[C@H](C2)N3C(=O)c2nnc[nH]2)nc2c(-c3ccc(C4CCCC4)nc3)cnn2c1N [Compound 3.166, ((1R,3s,5S)-3-(7-amino-3-(6-cyclopentylpyridin-3-yl)-6-(methylsulfonyl)pyrazolo[1,5-a]pyrimidin-5-yl)-8-azabicyclo[3.2.1]octan-8-yl)(4H-1,2,4-triazol-3-yl)methanone] | 100 to 1000 | 100 to 1000 | – | – | – |
| COc1ccc(-c2ccc(-c3cnn4c(N)cc([C@@H]5C[C@H]6CC[C@@H](C5)N6C(=O)c5nnc[nH]5)nc34)cn2)cc1F [Compound 2.5, ((1R,3s,5S)-3-(7-amino-3-(6-(3-fluoro-4-methoxyphenyl)pyridin-3-yl)pyrazolo[1,5-a]pyrimidin-5-yl)-8-azabicyclo[3.2.1]octan-8-yl)(4H-1,2,4-triazol-3-yl)methanone] | – | – | 100 to 1000 | 1000 to 10000 | – |
| CC(=O)c1c([C@@H]2C[C@H]3CC[C@@H](C2)N3C(=O)CO)nc2c(-c3cnc(-c4cc[nH]n4)c(F)c3)cnn2c1N [Compound 1.1.111, 1-((1R,3s,5S)-3-(6-acetyl-7-amino-3-(5-fluoro-6-(1H-pyrazol-3-yl)pyridin-3-yl)pyrazolo[1,5-a]pyrimidin-5-yl)-8-azabicyclo[3.2.1]octan-8-yl)-2-hydroxyethanone] | – | – | 1000 to 10000 | 1000 to 10000 | – |
| CC(=O)c1c([C@@H]2C[C@H]3CC[C@@H](C2)N3C(=O)CO)nc2c(-c3ccc(C4(O)CCC4)nc3)cnn2c1N [Compound 7.18, 1-((1R,3s,5S)-3-(6-acetyl-7-amino-3-(6-(1-hydroxycyclobutyl)pyridin-3-yl)pyrazolo[1,5-a]pyrimidin-5-yl)-8-azabicyclo[3.2.1]octan-8-yl)-2-hydroxyethanone] | – | – | 100 to 1000 | 100 to 1000 | – |
